# Tests used:
# [1] = intraileal injection
# Description: [^3H]Estrone 3-sulfate, 0.005 μmol/100 μl, was injected directly into the ileal lumen of Ostα^+/+ and Ostα^−/− male (FIG. 18C) and female (FIG. 18D) mice. Tissues were collected for analysis of radioactivity after 30 min.
# Mice that had been fed ad libitum were anesthetized by intraperitoneal administration of pentobarbital sodium (50 mg/kg) and additional anesthetic was administered as required for the duration of the experiment. […] At the end of the experiments, 150-300 μl of blood was collected from the abdominal aorta in a tared 1 ml syringe containing 50 μl of heparin (1000 U/ml). The small intestine was removed and segmented into 3 parts, where the first third after the stomach comprised the duodenum, the middle third the jejunum, and the section before the ileo-ceco-colic junction comprised the ileum. Colon, liver, gallbladder, kidney and the urinary bladder were also removed and weighed. The contents of the small intestine, colon, gallbladder and urinary bladder were included in the analysis. For the liver, approximately 0.2-0.4 g of tissue was taken for analysis of radioisotope content. Tissue and blood samples were placed in tared 20-ml glass vials, and Solvable (Perkin-Elmer, Life and Analytical Sciences, Boston, Mass.) was added to each vial (1.0 ml/0.1 g tissue or 2.0 ml/1.0 ml blood), which was then heated to 60° C. for 2 to 3 h. The vials were allowed to cool to room temperature, and 0.1 ml of 0.1 M EDTA/1.0 ml of Solvable was added to each vial of blood. H2O2 (30%) was then added in 0.1-ml aliquots (0.3 ml/1.0 ml Solvable for blood or 0.1 ml/1.0 ml Solvable for tissues). After standing at room temperature for 15 to 30 min, the vials were capped tightly and heated to 60° C. for 1 h and allowed to cool back to room temperature. After the addition of scintillation fluid (4 ml of Opti-Fluor to 200 μl of each sample) (Perkin-Elmer, Life and Analytical Sciences, Boston, Mass.), the samples were allowed to stand for at least 2 h at room temperature before counting. Samples were counted in a Beckman LS 6500 scintillation counter (Beckman Coulter, Fullerton, Calif.). […]
# [2] = biological target: Ostα-YN (mouse); assay: cell-based or functional assay
# Ostα-YN (mouse), sequence (Q8R000 whole entry): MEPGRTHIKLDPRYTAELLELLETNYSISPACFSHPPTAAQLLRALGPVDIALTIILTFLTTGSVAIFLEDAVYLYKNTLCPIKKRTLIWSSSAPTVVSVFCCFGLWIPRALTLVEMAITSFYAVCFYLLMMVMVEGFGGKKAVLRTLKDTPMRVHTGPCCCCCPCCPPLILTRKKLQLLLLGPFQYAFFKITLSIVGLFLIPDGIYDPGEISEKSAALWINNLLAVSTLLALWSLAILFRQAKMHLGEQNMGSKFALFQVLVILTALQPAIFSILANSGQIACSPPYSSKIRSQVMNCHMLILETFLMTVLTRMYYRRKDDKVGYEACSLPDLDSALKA
molecule,measurement,setting,value
"C[C@H](CCC(=O)NCCS(=O)(=O)O)[C@H]1CC[C@H]2[C@@H]3[C@H](O)C[C@@H]4C[C@H](O)CC[C@]4(C)[C@H]3C[C@H](O)[C@]12C [taurocholate, taurocholic acid]",absorption from the ileum,"[1]; wild type mice, 15 min",> 90%
Ostβ29-53-YC (peptide),[3H]taurocholate transport in cells co-transfected with Ostα-YN and Ostβ-YC,[2],30%
estrone 3-sulfate [estrone sulfate],fraction absorbed from the ileum,"[1]; Ostα−/− mice, 30 min",20-30%
same,removed from the ileum,"[1]; wild type mice, 30 min",60-70%

# Reference: US20110030077A1, “METHODS OF MODULATING THE ORGANIC SOLUTE AND STEROID TRANSPORTER (OSTalpha-OSTbeta) ACTIVITY AND TREATING ASSOCIATED CONDITIONS” (UNIVERSITY OF ROCHESTER, priority 2009, published 2011)
